Test results taken from patent US20060194835A1, “Compositions and methods for treating or preventing flaviviridae infections” (priority 2005, published 2006).

What was measured:
[1] = Pharmacokinetics of orally administered celgosivir in rats (plasma castanospermine); type: in vivo, Male Sprague-Dawley rats; conditions: normal rats; loperamide 0.35 mg/kg
Method: The purpose of this study was to evaluate the effect of an anti-diarrheal agent on the pharmacokinetics (PK) of orally administered celgosivir. In addition, the effect of anti-diarrheal agents on celgosivir PK was investigated. The pharmacokinetics of celgosivir was assessed by following the plasma profile of celgosivir's primary metabolite, castanospermine. By way of background, orally administered celgosivir, although well tolerated in humans, does produce side effects in the gastrointestinal tract, including flatulence and mild to moderate diarrhea. Loperamide hydrochloride, an anti-motility agent that is an active ingredient found in some over-the-counter medications used for symptomatic relief of acute and chronic diarrhea, was investigated for its effect on the PK of orally administered celgosivir. […]
At various time-points after celgosivir administration, blood samples were withdrawn from animals via the tail vein. Plasma samples were generated and stored frozen until analyzed. Plasma samples were analyzed for castanospermine, the major metabolite of celgosivir, using LC/MS. […] Celgosivir pharmacokinetics was assessed by following the plasma concentration of its primary metabolite, castanospermine. Pharmacokinetic parameters were calculated according to a two-compartment model with bio-exponential decay using the method of residuals. […]

BVDV [2] = test: Triple combination checkerboard CPE assay (celgosivir or castanospermine + interferon-α2b + ribavirin), MacSynergy II; type: cell-based, bovine viral diarrhea virus; conditions: for EC50: Bovine viral diarrhea virus isolates and strains, read-out: Average Celgosivir EC50
Method: Each double or triple combination was performed twice. The combination efficacy data were analyzed using the MacSynergy™ II software program as described herein.
Each double or triple combination was performed twice. The combination efficacy data were analyzed using the MacSynergy™ II software program as described herein. The EC50 for each of celgosivir and castanospermine was calculated from the triple combination studies described in Example 6.
Each double or triple combination was performed twice. The combination efficacy data were analyzed using the MacSynergy™ software program as described herein. The EC50 for interferon-α2b was calculated from the triple combination studies described in Example 6.

BVDV [3] = test: Protection of MDBK cells from BVDV-induced cytopathicity (CPE reduction, MTS/PMS); type: cell-based, bovine viral diarrhea virus; conditions: Bovine viral diarrhea virus isolates and strains, MDBK, 50% CPE reduction; MOI 0.01
BVDV [4] = test: Double combination checkerboard CPE assay, MacSynergy II and isobolograms; type: cell-based, bovine viral diarrhea virus
Method: A double combination assay was performed using MDBK cells infected with BVDV in an inhibition of cytopathic effect (CPE) assay as described in Example 2. The double drug combinations were measured by creating a “checkerboard” of drug concentrations used on cell monolayers in microtiter plates, with one drug being titrated horizontally and the other drug titrated vertically, and each double combination being tested at least twice.
The EC50 values of a first test compound derived while in combination with a second test compound were plotted against the corresponding concentration of the second test compound to create an isobole (dose pair). All of the isoboles were plotted in an isobologram to determine the presence of synergy, antagonism or additivity for the combined test compounds. […] The line connecting the monotherapy EC50 values represents the theoretical additivity effect values for the two compounds.
In addition to generating isobolograms, the checkerboard data was imported into MacSynergy™ II software to graph the observed synergy (or additive or antagonism) volumes for the double combinations tested. Briefly, the calculated additive interactions were subtracted from the experimentally determined values to reveal the corresponding drug concentrations at which a synergistic (indicated by positive % values) or antagonistic (indicated by negative % values) effect is observed. The greater the positive percent volume observed, the greater the synergy between the two compounds. […] In contrast, any value about or less than −25 μM^2% or μM(IU/mL) % is indicative of a significant antagonistic effect. The data presented in Table 5 represent volumes of synergy or antagonism with 95% confidence. The confidence level was calculated using a Bonferroni adjustment as a conservative estimate of significance to statistically evaluate the data.

in vitro [5] = conditions: bovine
BVDV strain NADL = test: Inhibition of viral release from BVDV-infected MDBK cells (plaque titer); conditions: for EC50 / EC90: Bovine viral diarrhea virus isolates and strains, MDBK, 24 h
in vitro [6] = conditions: bovine; remark: listed apart in the source
[7] = Cytotoxicity of test compound in MDBK cells in the absence of viral infection (Example 1); conditions: bovine, MDBK cells, uninfected
[8] = Drug cytotoxicity in uninfected MDBK cells (MTS/PMS); conditions: bovine

## CCCC(=O)O[C@H]1CN2CC[C@H](O)[C@@H]2[C@@H](O)[C@@H]1O [Celgosivir, [1S-(1α,6β,7α,8β,8aβ)]-octahydro-1,6,7,8-indolizinetetrol 6-butanoate]
[1]
  effect of concomitant anti-diarrheal agent on the PK of celgosivir: no significant effect
BVDV [2]; Ribavirin 0 μM, Interferon-α2b 0 IU/mL
  EC50: ~6.5 µM
BVDV [2]; Ribavirin 0 μM, Interferon-α2b 0.7 IU/mL
  EC50: 4.8 ± 0.7 µM
BVDV [2]; Ribavirin 0 μM, Interferon-α2b 2.2 IU/mL
  EC50: 3.9 ± 0.9 µM
BVDV [2]; Ribavirin 0 μM, Interferon-α2b 6.7 IU/mL
  EC50: 1.6 ± 0.6 µM
BVDV [2]; Ribavirin 0 μM, Interferon-α2b 20 IU/mL
  EC50: < 0.4 µM
BVDV [2]; Ribavirin 0.37 μM, Interferon-α2b 0.7 IU/mL
  EC50: 4.3 ± 1 µM
BVDV [2]; Ribavirin 0.37 μM, Interferon-α2b 2.2 IU/mL
  EC50: 2.7 ± 1.3 µM
BVDV [2]; Ribavirin 0.37 μM, Interferon-α2b 6.7 IU/mL
  EC50: 1 ± 0.7 µM
BVDV [2]; Ribavirin 0.37 μM, Interferon-α2b 20 IU/mL
  EC50: < 0.3 µM
BVDV [2]; Ribavirin 1.1 μM, Interferon-α2b 0.7 IU/mL
  EC50: 2.9 ± 0.9 µM
BVDV [2]; Ribavirin 1.1 μM, Interferon-α2b 2.2 IU/mL
  EC50: 2.1 ± 0.2 µM
BVDV [2]; Ribavirin 1.1 μM, Interferon-α2b 6.7 IU/mL
  EC50: < 0.9 µM
BVDV [2]; Ribavirin 1.1 μM, Interferon-α2b 20 IU/mL
  EC50: < 0.3 µM
BVDV [2]; Ribavirin 3.3 μM, Interferon-α2b 0.7 IU/mL
  EC50: < 1 µM
BVDV [2]; Ribavirin 3.3 μM, Interferon-α2b 2.2 IU/mL
  EC50: < 0.3 µM
BVDV [2]; Ribavirin 3.3 μM, Interferon-α2b 6.7 IU/mL
  EC50: < 0.3 µM
BVDV [2]; Ribavirin 3.3 μM, Interferon-α2b 20 IU/mL
  EC50: < 0.3 µM
BVDV [2]; upon the addition of increasing concentrations of interferon-α2b
  dose-dependent reduction in EC50: up to 26 fold
BVDV [3]
  EC50: 7.7 ± 3 µM
BVDV [4]; at 2 μM ribavirin
  fold reduction of EC50 of celgosivir: 3 fold
BVDV [4]; at 2.2 μM NM-107
  fold reduction of EC50 of celgosivir: more than 8 fold
In vitro [5]
  CC50: > 300 µM
BVDV strain NADL
  EC50: 2 ± 1.3 µM
  EC90: 7.6 ± 2.3 µM
BVDV strain NADL; MOI = 1
  TI (Therapeutic Index, CC50/EC50): >1000
In vitro [6]
  CC50 at 24 h: > 2000 µM

## NC(=O)c1ncn([C@@H]2O[C@H](CO)[C@@H](O)[C@H]2O)n1 [Ribavirin, ribavirin, reference compound]
[7]
  CC50 at 24 h: 250 µM
BVDV [3]
  EC50: 4.4 ± 2 µM
[8]
  CC50: ≥ 25 µM
BVDV strain NADL
  EC50: 1.5 ± 1 µM
  EC90: 5.7 ± 2.7 µM
